Test results as given in US20060229302A1, “Tricyclic indole derivatives and their use in the treatment of alzheimer's disease” (priority 2003, published 2006).
Where a name gives a salt, the structure may show the parent alone.

Molecular target: Asp-2 (Homo sapiens, UniProt P56817)
Experiment: Asp-2 inhibitory assay
Assay type: biochemical
Conditions: FAM-[[…]]-TAMRA substrate, pH 4.5, 1 h room temperature; read-out: inhibition in the Asp-2 inhibitory assay
Experimental: (I) Asp-2 Inhibitory Assay
For each compound being assayed, in a 384 well plate, is added:
This is prepared by diluting 2 ml of a 2 mM DMSO solution of the substrate into 400 ml of buffer (100 mM Sodium acetate pH=4.5, 1 l Milli-Q water, 0.06% Triton X-100 (0.5 ml/l), pH adjusted to 4.5 using glacial acetic acid).
c) 10 μl enzyme solution. This is prepared by diluting 16 ml of a 500 nM enzyme solution into 384 ml of buffer (prepared as above).
Blank wells (enzyme solution replaced by buffer) are included as controls on each plate.

Asp-2, sequence (P56817 46-501): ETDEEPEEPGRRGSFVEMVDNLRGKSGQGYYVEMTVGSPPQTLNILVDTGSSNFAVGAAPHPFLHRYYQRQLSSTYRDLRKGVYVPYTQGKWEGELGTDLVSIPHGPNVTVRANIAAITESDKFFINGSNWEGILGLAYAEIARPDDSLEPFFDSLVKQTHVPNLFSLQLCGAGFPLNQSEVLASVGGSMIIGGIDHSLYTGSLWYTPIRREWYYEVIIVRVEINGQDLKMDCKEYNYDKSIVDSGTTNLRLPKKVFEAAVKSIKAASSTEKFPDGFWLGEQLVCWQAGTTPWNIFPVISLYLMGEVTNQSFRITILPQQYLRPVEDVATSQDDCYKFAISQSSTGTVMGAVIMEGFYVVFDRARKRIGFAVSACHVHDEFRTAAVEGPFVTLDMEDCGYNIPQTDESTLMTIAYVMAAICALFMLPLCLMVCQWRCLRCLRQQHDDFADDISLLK

SMILES | IC50
CCc1cn2c3c(cc(C(=O)N[C@@H](Cc4cc(F)cc(F)c4)[C@H](O)CNC4CC4)cc13)N(C)S(=O)(=O)CC2 [Example E39, N-{(1S,2R)-3-(Cyclopropylamino)-1-[(3,5-difluorophenyl)methyl]-2-hydroxypropyl}-7-ethyl-1-methyl-3,4-dihydro-1H-[1,2,5]thiadiazepino[3,4,5-hi]indole-9-carboxamide 2,2-dioxide formate salt] | < 1 µM
CCCc1cn2c3c(cc(C(=O)N[C@@H](Cc4ccccc4)[C@H](O)CNCc4cccc(C(F)(F)F)c4)cc13)N(C)S(=O)(=O)CC2 [Example E44, N-[(1S,2R)-2-Hydroxy-1-(phenylmethyl)-3-({[3-(trifluoromethyl)phenyl]methyl}amino)propyl]-1-methyl-7-propyl-3,4-dihydro-1H-[1,2,5]thiadiazepino[3,4,5-hi]indole-9-carboxamide 2,2-dioxide formate salt] | < 1 µM
CCCc1cn2c3c(cc(C(=O)N[C@@H](Cc4ccccc4)[C@H](O)CNCc4cnn(CC)c4)cc13)N(C)S(=O)(=O)CC2 [Example E47, N-[(1S,2R)-3-{[(1-Ethyl-1H-pyrazol-4-yl)methyl]amino}-2-hydroxy-1-(phenylmethyl)propyl]-1-methyl-7-propyl-3,4-dihydro-1H-[1,2,5]thiadiazepino[3,4,5-hi]indole-9-carboxamide 2,2-dioxide formate salt] | < 1 µM
CCCc1cn2c3c(cc(C(=O)N[C@@H](Cc4ccccc4)[C@H](O)CNCc4cccc(C(F)(F)F)c4)cc13)N(CC)S(=O)(=O)CC2 [Example E48, 1-Ethyl-N-[(1S,2R)-2-hydroxy-1-(phenylmethyl)-3-({[3-(trifluoromethyl)phenyl]methyl}amino)propyl]-7-propyl-3,4-dihydro-1H-[1,2,5]thiadiazepino[3,4,5-hi]indole-9-carboxamide 2,2-dioxide formate salt] | < 1 µM
CCCc1cn2c3c(cc(C(=O)N[C@@H](Cc4ccccc4)[C@H](O)CNCc4cnn(CC)c4)cc13)N(CC)S(=O)(=O)CC2 [Example E51, 1-Ethyl-N-[(1S,2R)-3-{[(1-ethyl-1H-pyrazol-4-yl)methyl]amino}-2-hydroxy-1-(phenylmethyl)propyl]-7-propyl-3,4-dihydro-1H-[1,2,5]thiadiazepino[3,4,5-hi]indole-9-carboxamide 2,2-dioxide formate salt] | < 1 µM
CCc1cn2c3c(cc(C(=O)N[C@@H](Cc4ccccc4)[C@H](O)CNCc4cccc(OC(F)(F)F)c4)cc13)N(C)S(=O)(=O)CC2 [Example E67, 7-Ethyl-N-{(1S,2R)-2-hydroxy-1-(phenylmethyl)-3-[({3-[(trifluoromethyl)oxy]phenyl}methyl)amino]propyl}-1-methyl 3,4-dihydro-1H-[1,2,5]thiadiazepino[3,4,5-hi]indole-9-carboxamide 2,2-dioxide formate salt] | < 1 µM
CCc1cn2c3c(cc(C(=O)N[C@@H](Cc4ccccc4)[C@H](O)CNCc4cccc(C)c4)cc13)N(C)S(=O)(=O)CC2 [Example E70, 7-Ethyl-N-[(1S,2R)-2-hydroxy-3-{[(3-methylphenyl)methyl]amino}-1-(phenylmethyl)propyl]-1-methyl-3,4-dihydro-1H-[1,2,5]thiadiazepino[3,4,5-hi]indole-9-carboxamide 2,2-dioxide formate salt] | < 1 µM
CCc1cn2c3c(cc(C(=O)N[C@@H](Cc4ccccc4)[C@H](O)CN[C@H]4CCc5ccccc54)cc13)N(C)S(=O)(=O)CC2 [Example E72, N-[(1S,2R)-3-[(1S)-2,3-Dihydro-1H-inden-1-ylamino]-2-hydroxy-1-(phenylmethyl)propyl]-7-ethyl-1-methyl-3,4-dihydro-1H-[1,2,5]thiadiazepino[3,4,5-hi]indole-9-carboxamide 2,2-dioxide formate salt] | < 1 µM
CCc1cn2c3c(cc(C(=O)N[C@@H](Cc4ccccc4)[C@H](O)CNCc4cnn(CC(F)(F)F)c4)cc13)N(C)S(=O)(=O)CC2 [Example E74, 7-Ethyl-N-[(1S,2R)-2-hydroxy-1-(phenylmethyl)-3-({[1-(2,2,2-trifluoroethyl)-1H-pyrazol-4-yl]methyl}amino)propyl]-1-methyl-3,4-dihydro-1H-[1,2,5]thiadiazepino[3,4,5-hi]indole-9-carboxamide 2,2-dioxide formate salt] | < 1 µM
CCc1cn2c3c(cc(C(=O)N[C@@H](Cc4ccccc4)[C@H](O)CNCc4cccc(C(F)(F)F)c4)cc13)N(C)S(=O)(=O)C2C (stereo partly drawn) [Example E78, 6-Ethyl-N-[(1S,2R)-2-hydroxy-1-(phenylmethyl)-3-({[3-(trifluoromethyl)phenyl]methyl}amino)propyl]-1,3dimethyl-1H-[1,2,5]thiadiazino[3,4,5-hi]indole-8-carboxamide 2,2-dioxide formate salt] | < 1 µM
CCc1cn2c3c(cc(C(=O)N[C@@H](Cc4ccccc4)[C@H](O)CNC(C)(C)c4cccc(C(F)(F)F)c4)cc13)N(C)S(=O)(=O)C2 [Example E79, 6-Ethyl-N-[(1S,2R)-2-hydroxy-3-({1-methyl-1-[3-(trifluoromethyl)phenyl]ethyl}amino)-1-(phenylmethyl)propyl]-1-methyl-1H-[1,2,5]thiadiazino[3,4,5-hi]indole-8-carboxamide 2,2-dioxide formate salt] | < 1 µM
CCc1cn2c3c(cc(C(=O)N[C@@H](Cc4ccccc4)[C@H](O)CNCc4cccc(C(F)(F)F)c4)cc13)N(C)S(=O)(=O)C2 [Example E83, 6-Ethyl-N-[(1S,2R)-2-hydroxy-1-(phenylmethyl)-3-({[3-(trifluoromethyl)phenyl]methyl}amino)propyl]-1-methyl-1H-[1,2,5]thiadiazino[3,4,5-hi]indole-8-carboxamide 2,2-dioxide formate salt] | < 1 µM
CCc1cn2c3c(cc(C(=O)N[C@@H](Cc4ccccc4)[C@H](O)CNCc4cncc(C(=O)NC)c4)cc13)N(C)S(=O)(=O)CC2 [Example E97, 7-Ethyl-N-[(1S,2R)-2 hydroxy-3-[({5-[(methylamino)carbonyl]-3-pyridinyl}methyl)amino]-1-(phenylmethyl)propyl]-1-methyl-3,4-dihydro-1H-[1,2,5]thiadiazepino[3,4,5-hi]indole-9-carboxamide 2,2-dioxide formate salt] | < 1 µM
CCc1cc(CNC[C@@H](O)[C@H](Cc2ccccc2)NC(=O)c2cc3c4c(c2)c(CC)cn4CCS(=O)(=O)N3C)on1 [Example E104, 7-Ethyl-N-[(1S,2R)-3-{[(3-ethyl-5-isoxazolyl)methyl]amino}-2-hydroxy-1-(phenylmethyl)propyl]-1-methyl-3,4-dihydro-1H-[1,2,5]thiadiazepino[3,4,5-hi]indole-9-carboxamide 2,2-dioxide] | < 1 µM
CCc1cn2c3c(cc(C(=O)N[C@@H](Cc4ccccc4)[C@H](O)CN[C@@H](C)C(=O)NC4CCCCC4)cc13)N(C)S(=O)(=O)CC2 [Example E105, N-[(1S,2R)-3-{[(1S)-2-(Cyclohexylamino)-1-methyl-2-oxoethyl]amino}-2-hydroxy-1-(phenylmethyl)propyl]-7-ethyl-1-methyl-3,4-dihydro-1H-[1,2,5]thiadiazepino[3,4,5-hi]indole-9-carboxamide 2,2-dioxide] | < 1 µM
CCc1cn2c3c(cc(C(=O)N[C@@H](Cc4ccccc4)[C@H](O)CNC4CCC(F)(F)CC4)cc13)N(C)S(=O)(=O)CC2 [Example E106, N-[(1S,2R)-3-[(4,4-Difluorocyclohexyl)amino]-2-hydroxy-1-(phenylmethyl)propyl]-7-ethyl-1-methyl-3,4-dihydro-1H-[1,2,5]thiadiazepino[3,4,5-hi]indole-9-carboxamide 2,2-dioxide formate salt] | < 1 µM
